In patent publication US8399465B2, “Compounds with two fused bicyclic heteroaryl moieties as modulators of leukotriene A4 hydrolase” (Janssen Pharmaceutica NV, priority 2009, dated 2013):
Structures can show the parent of a compound that is named as a salt. Where two headings read alike, the source gives them in different places.

Key:
[1] = tested on: LTB4 production in murine blood (LTA4H); assay: LTB4 production by calcium ionophore-stimulated murine blood for LTA4H inhibitor activity; assay type: cell-based, CD-1 mice; conditions: Mus musculus
Summary of the method: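 LTB4 was measured by ELISA in supernatants after calcium ionophore A23187 stimulation (final 7 μg/mL, 30 min, 37° C) of CD-1 mouse blood collected on heparin. Compound was preincubated with the blood for 15 min beforehand. Values come from one determination or average several.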

[2] = tested on: ex vivo calcium ionophore-stimulated LTB4 production in whole blood; assay: Murine arachidonic acid-induced inflammation model: ex vivo stimulated LTB4 production in blood; set-up: species or system Balb/c mice; conditions: Mus musculus; 30 mg/kg oral gavage; blood diluted 1:1, A23187 stimulated ex vivo; percent inhibition of LTB4 production; read-out: % Inh. LTB4
[3] = target: T1, recombinant human LTA4 hydrolase (rhLTA4H) (Homo sapiens, UniProt P09960); assay: Recombinant human LTA4 hydrolase assay for LTA4 hydrolase inhibitor activity; assay type: biochemical; conditions: rhLTA4H, LTB4 by immunoassay; single determination or average of two or more; mark after value = form tested: ′ free base, ″ hydrochloride, ^ formate; read-out: IC50
T1 construct: made in house; host or cells: Spodoptera frugiperda (Sf-9) cells, baculovirus (pFastBac1)
T1 sequence (P09960 1-611): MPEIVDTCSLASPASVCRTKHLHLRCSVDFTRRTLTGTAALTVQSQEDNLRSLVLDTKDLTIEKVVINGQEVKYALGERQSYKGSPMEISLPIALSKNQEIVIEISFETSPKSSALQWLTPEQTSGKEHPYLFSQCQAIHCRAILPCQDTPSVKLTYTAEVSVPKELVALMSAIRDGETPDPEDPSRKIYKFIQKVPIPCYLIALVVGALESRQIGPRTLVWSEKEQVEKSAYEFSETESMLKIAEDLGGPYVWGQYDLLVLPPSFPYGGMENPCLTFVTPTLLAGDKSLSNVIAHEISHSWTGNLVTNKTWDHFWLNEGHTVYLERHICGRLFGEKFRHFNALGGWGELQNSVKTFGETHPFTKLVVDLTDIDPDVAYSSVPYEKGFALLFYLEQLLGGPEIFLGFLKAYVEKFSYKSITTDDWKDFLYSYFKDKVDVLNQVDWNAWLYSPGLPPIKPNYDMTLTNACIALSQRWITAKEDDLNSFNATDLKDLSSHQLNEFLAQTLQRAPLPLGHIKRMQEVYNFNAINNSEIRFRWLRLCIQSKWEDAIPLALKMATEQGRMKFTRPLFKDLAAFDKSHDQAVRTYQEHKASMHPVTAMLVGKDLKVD
Summary of the method: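 LTB4 formation, measured by enzyme immunoassay, was the read-out. The enzyme, recombinant human LTA4H expressed in Sf-9 insect cells (10 ng per reaction), was exposed to compound for 10 min at room temperature before hydrolysed-ester LTA4 substrate was added for 30 min. Enzyme-free negatives were included.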

[4] = tested on: arachidonic acid-induced neutrophil influx in murine ear tissue; assay: Murine arachidonic acid-induced inflammation model: neutrophil influx (myeloperoxidase) in ear; assay type: in vivo, Balb/c mice; conditions: Mus musculus, read-out: % Inh. MPO
[5] = murine blood diluted 1 in 15, A23187 stimulated, single determination or average, mark after value = form tested: ′ free base, ″ hydrochloride, ^ formate, read-out: IC50
[6] = 30 mg/kg oral gavage, 60 min before topical arachidonic acid, ear biopsy after 3 h, percent inhibition of neutrophil influx

Row | Structure (SMILES) | IC50 [1, 5] | IC50 [3] | inhibition at 30 mg/kg [2] | inhibition at 30 mg/kg [4, 6] | inhibition at 30 mg/kg ([4]; Neutrophil) | IC50 [1]
1 | CC(C)(C)C(=O)NC1CCN(Cc2cc3ccc(Oc4nc5ncccc5s4)cc3o2)C1 (stereo not drawn) [Example 236, 2,2-Dimethyl-N-{1-[6-(thiazolo[4,5-b]pyridin-2-yloxy)-benzofuran-2-ylmethyl]-pyrrolidin-3-yl}-propionamide formate] | 190 nM | 60 nM | 39% | – | 34% | –
2 | NC(=O)NC1CCN(Cc2coc3cc(Oc4nc5ncccc5s4)ccc23)CC1 [Example 240, {1-[6-(Thiazolo[4,5-b]pyridin-2-yloxy)-benzofuran-3-ylmethyl]-piperidin-4-yl}-urea] | 70 nM | 5 nM | 50% | 0% | – | –
3 | NC(=O)N1C[C@@H]2CC[C@H]1CN2Cc1coc2cc(Oc3nc4ncccc4s3)ccc12 [Example 241, (1S,4S)-5-[6-(Thiazolo[4,5-b]pyridin-2-yloxy)-benzofuran-3-ylmethyl]-2,5-diaza-bicyclo[2.2.2]octane-2-carboxylic acid amide formate] | 69 nM | 4 nM | 77% | – | 85% | –
4 | O=C(O)C1CCN(Cc2coc3cc(Oc4nc5ccccc5s4)ccc23)CC1 [Example 248, 1-[6-(Benzothiazol-2-yloxy)-benzofuran-3-ylmethyl]-piperidine-4-carboxylic acid formate] | – | 12 nM | 83% | – | 90% | 20 nM
5 | CC(=O)N1CCN(CCc2coc3cc(Oc4nc5ncccc5s4)ccc23)CC1 [Example 257, 1-(4-{2-[6-(Thiazolo[4,5-b]pyridin-2-yloxy)-benzofuran-3-yl]-ethyl}-piperazin-1-yl)-ethanone] | 169 nM | 3 nM | 68.7% | 87% | – | –
6 | CC(=O)NC1CCN(Cc2coc3cc(Oc4nc5ncccc5s4)ccc23)C1 (stereo not drawn) [Example 307, N-{1-[6-(Thiazolo[4,5-b]pyridin-2-yloxy)-benzofuran-3-ylmethyl]-pyrrolidin-3-yl}-acetamide formate] | 8 nM | 5 nM | 81% | – | 78% | –
7 | CC(=O)N1C[C@@H]2CC[C@H]1CN2Cc1cc2ncc(Oc3nc4ncccc4s3)cc2o1 [Example 339, (1S,4S)-1-{5-[6-(Thiazolo[4,5-b]pyridin-2-yloxy)-furo[3,2-b]pyridin-2-ylmethyl]-2,5-diaza-bicyclo[2.2.2]oct-2-yl}-ethanone formate] | 70 nM | 12 nM | 50% | – | 50% | –
8 | CC(=O)N[C@H]1C[C@H]2CC[C@@H](C1)N2C(=O)c1coc2cc(Oc3nc4ncccc4s3)ccc12 [Example 369, meso-endo-N-{8-[6-(Thiazolo[4,5-b]pyridin-2-yloxy)-benzofuran-3-carbonyl]-8-aza-bicyclo[3.2.1]oct-3-yl}-acetamide] | 100 nM | 19 nM | 58% | 76% | – | –
9 | O=C(c1coc2cc(Oc3nc4ncccc4s3)ccc12)N1CCC(N2CCCC2=O)CC1 [Example 370, 1-{1-[6-(Thiazolo[4,5-b]pyridin-2-yloxy)-benzofuran-3-carbonyl]-piperidin-4-yl}-pyrrolidin-2-one] | 30 nM | 9 nM | 78% | – | 69% | –

The next lines start with results.

Row | IC50 [1, 5] | IC50 [3] | Structure (SMILES) | inhibition at 30 mg/kg [2] | inhibition at 30 mg/kg [4, 6] | inhibition at 30 mg/kg ([4]; Neutrophil) | IC50 [1]
10 | 53 nM | 5 nM | CC(C)(O)C1CCN(Cc2coc3cc(Oc4nc5ncccc5s4)ccc23)CC1 [Example 218, 2-{1-[6-(Thiazolo[4,5-b]pyridin-2-yloxy)-benzofuran-3-ylmethyl]-piperidin-4-yl}-propan-2-ol] | 83% | 98% | – | –
11 | 22 nM | 2 nM | CC(=O)N1C[C@@H]2CC[C@H]1CN2Cc1coc2cc(Oc3nc4ncccc4s3)ccc12 [Example 237, (1S,4S)1-{5-[6-(Thiazolo[4,5-b]pyridin-2-yloxy)-benzofuran-3-ylmethyl]-2,5-diaza-bicyclo[2.2.2]oct-2-yl}-ethanone] | 90% | 81% | – | –
12 | 44 nM | 5 nM | CC(=O)N1CCC(N(Cc2coc3cc(Oc4nc5ncccc5s4)ccc23)C2CC2)CC1 [Example 238, 1-(4-{Cyclopropyl-[6-(thiazolo[4,5-b]pyridin-2-yloxy)-benzofuran-3-ylmethyl]-amino}-piperidin-1-yl)-ethanone] | 93% | 77% | – | –
13 | 18 nM | 6 nM | NC(=O)N1CCN(Cc2coc3cc(Oc4nc5ncccc5s4)ccc23)CC1 [Example 239, 4-[6-(Thiazolo[4,5-b]pyridin-2-yloxy)-benzofuran-3-ylmethyl]-piperazine-1-carboxylic acid amide] | 71% | 90% | – | –
14 | 24 nM | 5 nM | CS(=O)(=O)NC1CCN(Cc2coc3cc(Oc4nc5ncccc5s4)ccc23)CC1 [Example 244, N-{1-[6-(Thiazolo[4,5-b]pyridin-2-yloxy)-benzofuran-3-ylmethyl]-piperidin-4-yl}-methanesulfonamide] | 80.7% | 89% | – | –
15 | 260 nM | 61 nM | c1cnc2nc(Oc3ccc4c(CCN5CCOCC5)coc4c3)sc2c1 [Example 256, 2-[3-(2-Morpholin-4-yl-ethyl)-benzofuran-6-yloxy]-thiazolo[4,5-b]pyridine] | 68.4% | 83% | – | –
16 | 88 nM | 22 nM | CC(=O)N1C[C@@H]2C[C@H]1CN2CCc1coc2cc(Oc3nc4ncccc4s3)ccc12 [Example 258, (1S,4S)-1-(5-{2-[6-(Thiazolo[4,5-b]pyridin-2-yloxy)-benzofuran-3-yl]-ethyl}-2,5-diaza-bicyclo[2.2.1]hept-2-yl)-ethanone] | 70.9% | 72% | – | –
17 | 12 nM | 4 nM | OCC1CCN(Cc2coc3cc(Oc4nc5ncccc5s4)ccc23)CC1 [Example 269, {1-[6-(Thiazolo[4,5-b]pyridin-2-yloxy)-benzofuran-3-ylmethyl]-piperidin-4-yl}-methanol] | 74% | 92% | – | –
18 | 66 nM | 5 nM | CC(=O)N(C)C1CCN(Cc2coc3cc(Oc4nc5ncccc5s4)ccc23)C1 (stereo not drawn) [Example 309, N-Methyl-N-{1-[6-(thiazolo[4,5-b]pyridin-2-yloxy)-benzofuran-3-ylmethyl]-pyrrolidin-3-yl}-acetamide] | 70% | 81% | – | –
19 | 61 nM | 20 nM | CC(=O)N1C[C@H]2C[C@@H]1CN2C(=O)c1cc2cc(Oc3nc4ncccc4s3)ccc2o1 [Example 366, (1R,4R)-1-{5-[5-(Thiazolo[4,5-b]pyridin-2-yloxy)-benzofuran-2-carbonyl]-2,5-diaza-bicyclo[2.2.1]hept-2-yl}-ethanone] | 78% | 50% | – | –
20 | 84 nM | 25 nM | CC(=O)N1C[C@@H]2C[C@H]1CN2C(=O)c1coc2cc(Oc3nc4ncccc4s3)ccc12 [Example 371, (1S,4S)-1-{5-[6-(Thiazolo[4,5-b]pyridin-2-yloxy)-benzofuran-3-carbonyl]-2,5-diaza-bicyclo[2.2.1]hept-2-yl}-ethanone] | 54% | 82% | – | –
21 | 47 nM | 30 nM | CC(=O)N1CCCN(C(=O)c2coc3cc(Oc4nc5ncccc5s4)ccc23)CC1 [Example 372, 1-{4-[6-(Thiazolo[4,5-b]pyridin-2-yloxy)-benzofuran-3-carbonyl]-[1,4]diazepan-1-yl}-ethanone] | 62% | 53% | – | –
